Patent US20210093521A1, “ANTIBACTERIAL ACTIVITY BY MG COMPLEX IN DEODORANT EMULSION FOR AEROSOLS, DEODORANT INCLUDING THE SAME AND USE OF THE DEODORANT” (Henkel AG & Co. KGaA, priority 2019, published 2021)

Experiments:
[1] = test system: bacterial germs known to cause body odor; test: inhibition yard test, both germs tested; type: cell-based, Staphylococcus epidermidis, Staphylococcus hominis; details: agent within the deodorant emulsion
Text: The inhibition yard test (or agar diffusion test) is used to investigate the growth-inhibiting effect of substances or mixtures of substances on the most important bacterial germs known to cause body odor. For this purpose, the pathogen-containing material is spread out on a culture medium (usually on an agar layer within a Petri dish). Filter paper discs impregnated with the mixture of active substances to be tested or with a control without an active substance are placed on the bacterial layer so that the active substances can penetrate the material and spread there. If the test substance has an antimicrobial effect, clearly visible circles, so-called inhibition yards, form around the filter paper discs due to the inhibition of the pathogen growth. These can be measured in mm diameter.
An inhibition yard test was performed with deodorant emulsions containing the following potential or actual bacterial growth inhibiting additives (the amounts are given in weight %)

[2] = test system: four bacteria that cause body odor; test: membrane test, statements in text for all tested species; type: cell-based, Staphylococcus, Corynebacterium and Anaerococcus species; details: 14 h, agent or formulation in deodorant emulsion

Compound | antibacterial effect in the deodorant emulsion (inhibition zone) [1] | antibacterial effectiveness in the membrane test [2]
CCCCCCC(CCCC)C(=O)O (stereo not drawn) [Isocarb, 2-butyloctanioc acid] | no effect | 
Benzalkonium chloride | good effect even in small quantities | good effect
